The values that follow come from patent publication US20130203718A1 (priority 2010, published 2013).

The target of the assay is T1, hPRB (Homo sapiens, UniProt P06401).
T1 sequence (P06401 1-933): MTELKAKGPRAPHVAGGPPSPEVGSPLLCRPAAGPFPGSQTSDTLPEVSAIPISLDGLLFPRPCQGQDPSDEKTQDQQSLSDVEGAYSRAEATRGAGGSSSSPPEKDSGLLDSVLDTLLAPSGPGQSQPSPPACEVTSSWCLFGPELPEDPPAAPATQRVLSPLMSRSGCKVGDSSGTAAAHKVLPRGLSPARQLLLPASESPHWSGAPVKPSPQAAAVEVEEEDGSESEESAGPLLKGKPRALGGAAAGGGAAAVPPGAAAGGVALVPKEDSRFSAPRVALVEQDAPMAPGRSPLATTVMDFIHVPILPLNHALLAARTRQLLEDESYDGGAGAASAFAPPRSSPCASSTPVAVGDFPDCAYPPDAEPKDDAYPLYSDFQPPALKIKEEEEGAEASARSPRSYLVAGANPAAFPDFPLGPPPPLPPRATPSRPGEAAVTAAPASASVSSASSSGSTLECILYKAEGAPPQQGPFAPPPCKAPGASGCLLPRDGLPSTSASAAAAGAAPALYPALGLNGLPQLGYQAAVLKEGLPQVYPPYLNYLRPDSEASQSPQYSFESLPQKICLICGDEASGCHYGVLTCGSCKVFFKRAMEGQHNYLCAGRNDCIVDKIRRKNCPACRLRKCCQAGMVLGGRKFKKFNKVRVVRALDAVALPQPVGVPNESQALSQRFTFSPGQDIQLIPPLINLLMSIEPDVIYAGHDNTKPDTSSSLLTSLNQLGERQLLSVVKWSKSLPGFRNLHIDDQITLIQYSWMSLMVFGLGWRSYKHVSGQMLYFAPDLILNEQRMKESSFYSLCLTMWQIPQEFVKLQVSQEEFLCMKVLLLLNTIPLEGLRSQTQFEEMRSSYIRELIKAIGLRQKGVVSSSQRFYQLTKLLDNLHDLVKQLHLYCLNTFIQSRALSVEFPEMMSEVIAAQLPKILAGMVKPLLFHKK
The experiment in a line: PR transactivation assay (GRE2-Luc) in HEK293T cells transiently expressing hPRB. Format: cell-based. Further details: expressed in transfected cells; host or cells: HEK 293T. To be noted: APRn 1 μM. The method in brief:
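HEK293T cells transiently transfected by calcium phosphate with human PRB, GRE2-Luc reporter and β-gal control, grown in dextran-charcoal-treated FCS. Luciferase measured in lysates; agonist efficacy at 1 μM compound as ratio of luciferase activities ×100, antagonist efficacy as 100 minus that ratio; mean±SEM of 3-5 experiments.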

Where [1] appears, read: series 2-4, stated for both HEK293T and MDA-MB-231 iPRAB cells, FIGS. 3-8.
Where [2] appears, read: series 1 (no C3 substituent), HEK293T, FIG. 1.

Entries after “also recorded” stand apart in the source; their conditions may differ.

`C[C@]12CCC3C(CC=C4C[C@@H](F)CC[C@@H]43)C1CCC2=O` (stereo partly drawn) [APR-47, 3β-Fluoro-19-nor-androst-5-en-17-one]: the “hPRB agonist/antagonist character (in words)” value under setting [1] is given as “efficient hPRB antagonists”. In the case of `CC#C[C@]1(O)CCC2C3CC[C@H]4CCCC[C@@H]4C3CC[C@@]21C` (stereo partly drawn) [APR-54, 17α-(1-Propynyl)-19-nor-5-androstan-17β-ol], the “hPRB agonist/antagonist character (in words)” value under setting [2] is given as “full antagonists”. `CC(=O)[C@H]1CC[C@H]2[C@@H]3CC=C4C[C@@H](F)CC[C@]4(C)[C@H]3CC[C@]12C` [APR-16, 3β-Fluoropregn-5-en-20-one]: the “hPRB agonist/antagonist character (in words)” value under setting [1] was “efficient hPRB antagonists; also recorded: agonist activity of this molecule is completely abolished”. For the compound `CC#C[C@]1(O)CCC2C3CC[C@H]4CCCC[C@]4(C)C3CC[C@@]21C` (stereo partly drawn) [APR-42, 17α-(1-Propynyl)-5α-androstan-17β-ol], the “hPRB agonist/antagonist character (in words)” value under setting [2] is recorded as “full antagonists”.
